Measured values published in publication PMC4138103 (PLoS ONE, 2014).
Values joined by “and” are separate entries in the source; they are usually repeats but may differ in a detail not shown here. Identical values can stand only once. Like-named read-outs stand apart in the source and are kept apart here.

Tested on: Sprague-Dawley rats
Assay: Serum thyroid hormones (FT3, FT4, TSH)
Type: in vivo, Rattus norvegicus
Details: for Emax: Rattus norvegicus; for TSH / fT3 / fT4: group mean
Method: Serum free triiodothyronine (FT3), free thyroxine (FT4) and thyroid stimulating hormone (TSH) were measured by Elecsys 2010 immunochemistry analyzer using Roche FT3, FT4 and TSH reagents (all from Roche Diagnostics GmbH, Mannheim, Germany). The test principle is electrochemiluminescence immunoassay (ECLIA).
Data were also analyzed using the BMD method, which is based on dose-response modeling of the full data set using a nested family of exponential and Hill models. The analyses were done on data of males and females combined, using sex as a covariate. […] In that case, different Critical Effect Doses (CEDs) and CEDs at the lowest bound of the confidence interval (CED-L) were generated for each sex. If no difference between sexes is detected, a CED and CED-Ls for the combined data is generated. However, this was also done if the curve fits are close, and separate analyses for males and females were then performed manually. CEDs and CED-Ls were calculated at the predefined Critical Effect Size (CES) of 5% (EFSA standard) or 10%.

[1] = F, CES 5%, model E2, adipose tissue concentration based
[2] = F, CES 5%, model E2, adipose tissue concentration based, half min value added to zeros
[3] = F, CES 10%, model E2, adipose tissue concentration based
[4] = F, CES 10%, model E2, adipose tissue concentration based, half min value added to zeros
[5] = M, CES 5%, model E4, adipose tissue concentration based
[6] = M, CES 5%, model E4, adipose tissue concentration based, half min value added to zeros
[7] = M, CES 10%, model E4, adipose tissue concentration based
[8] = M, CES 10%, model E4, adipose tissue concentration based, half min value added to zeros
[9] = females, CES 5%, total dose based
[10] = females, CES 5%, total dose based, half min value added to zeros
[11] = females, CES 10%, total dose based
[12] = females, CES 10%, total dose based, half min value added to zeros
[13] = females, adipose tissue concentration based
[14] = females, total dose 10 mg/kg bw
[15] = females, total dose 30 mg/kg bw
[16] = females, total dose 100 mg/kg bw
[17] = females, total dose 300 mg/kg bw
[18] = females, total dose 1000 mg/kg bw
[19] = females, total dose 1700 mg/kg bw
[20] = males, CES 5%, total dose based
[21] = males, CES 5%, total dose based, half min value added to zeros
[22] = males, CES 10%, total dose based
[23] = males, CES 10%, total dose based, half min value added to zeros
[24] = males, adipose tissue concentration based
[25] = males, total dose 1000 mg/kg bw
[26] = males, total dose 1700 mg/kg bw

SMILES: Clc1cc(Cl)c(-c2cc(Cl)c(Cl)c(Cl)c2Cl)cc1Cl [PCB 180, 2,2′,3′,4,4′,5,5′-heptachlorobiphenyl]
- CED, Serum free T3 (S-fT3) [1]: 2280 µg/g lipid
- CED, Serum free T4 (S-fT4) [1]: 821 µg/g lipid
- CED-L, Serum free T3 (S-fT3) [1]: 1496 µg/g lipid
- CED-L, Serum free T4 (S-fT4) [1]: 683 µg/g lipid
- CED, Serum TSH [2]: 206 µg/g lipid
- CED-L, Serum TSH [2]: 126 µg/g lipid
- CED, Serum free T3 (S-fT3) [3]: 4680 µg/g lipid
- CED, Serum free T4 (S-fT4) [3]: 1690 µg/g lipid
- CED-L, Serum free T3 (S-fT3) [3]: 3072 µg/g lipid
- CED-L, Serum free T4 (S-fT4) [3]: 1402 µg/g lipid
- CED, Serum TSH [4]: 402 µg/g lipid
- CED-L, Serum TSH [4]: 246 µg/g lipid
- CED, Serum free T3 (S-fT3) [5]: 428 µg/g lipid
- CED, Serum free T4 (S-fT4) [5]: 158 µg/g lipid
- CED-L, Serum free T3 (S-fT3) [5]: 196 µg/g lipid
- CED-L, Serum free T4 (S-fT4) [5]: 117 µg/g lipid
- CED, Serum TSH [6]: 0.29 µg/g lipid
- CED-L, Serum TSH [6]: 0.04 µg/g lipid
- CED, Serum free T3 (S-fT3) [7]: 976 µg/g lipid
- CED, Serum free T4 (S-fT4) [7]: 328 µg/g lipid
- CED-L, Serum free T3 (S-fT3) [7]: 449 µg/g lipid
- CED-L, Serum free T4 (S-fT4) [7]: 243 µg/g lipid
- CED, Serum TSH [8]: 0.58 µg/g lipid
- CED-L, Serum TSH [8]: 0.09 µg/g lipid
- Emax (F, model E2, controls vs high dose according to the fitted model, read-out: Maximum response, Serum free T3 (S-fT3)): -22.5%
- Emax (females, controls vs high dose, fitted model, read-out: Serum free T3 (S-fT3), Maximum response): -21.8%
- Emax (males, controls vs high dose, fitted model, read-out: Serum free T3 (S-fT3), Maximum response): -26%
- Emax (read-out: Maximum response, Serum free T4 (S-fT4), F, model E2, controls vs high dose according to the fitted model): -50.7%
- Emax (read-out: Maximum response, Serum free T4 (S-fT4), M, model E4, controls vs high dose according to the fitted model): -67.2%
- Emax (read-out: Serum free T4 (S-fT4), Maximum response, females, controls vs high dose, fitted model): -49.4%
- Emax (read-out: Serum free T4 (S-fT4), Maximum response, males, controls vs high dose, fitted model): -66.7%
- Emax (model E4, controls vs high dose according to the fitted model, read-out: Maximum response, Serum free T3 (S-fT3)): -25%
- fT3, Dose response (females): D, T
- fT4, Dose response (females): D, T
- Serum free T3 (S-fT3), CED [9]: 354 mg/kg bw
- Serum free T3 (S-fT3), CED-L [9]: 233 mg/kg bw
- Serum free T4 (S-fT4), CED [9]: 128 mg/kg bw
- Serum free T4 (S-fT4), CED-L [9]: 106.6 mg/kg bw
- Serum TSH, CED [10]: 32.5 mg/kg bw
- Serum TSH, CED-L [10]: 19.9 mg/kg bw
- Serum free T3 (S-fT3), CED [11]: 727 mg/kg bw
- Serum free T3 (S-fT3), CED-L [11]: 479 mg/kg bw
- Serum free T4 (S-fT4), CED [11]: 263 mg/kg bw
- Serum free T4 (S-fT4), CED-L [11]: 219 mg/kg bw
- Serum TSH, CED [12]: 63.5 mg/kg bw
- Serum TSH, CED-L [12]: 38.8 mg/kg bw
- Serum free T3, CED [13]: 2280 µg/g lipid
- Serum free T4, CED [13]: 821 µg/g lipid
- TSH (females, total dose 3 mg/kg bw): 0.047 µIU/ml
- fT3 (females, total dose 3 mg/kg bw): 5.72 pmol/L
- fT4 (females, total dose 3 mg/kg bw): 22.2 pmol/L
- TSH [14]: 0.000136 µIU/ml
- fT3 [14]: 5.10 pmol/L
- fT4 [14]: 19.1 pmol/L
- TSH [15]: 0.00543 µIU/ml
- fT3 [15]: 6.17 pmol/L
- fT4 [15]: 23.4 pmol/L
- TSH [16]: 0.011 µIU/ml
- fT3 [16]: 6.20 pmol/L
- fT4 [16]: 22.4 pmol/L
- TSH [17]: 0.021 µIU/ml
- fT3 [17]: 5.68 pmol/L
- fT4 [17]: 18.0 pmol/L
- TSH [18]: 0.011 µIU/ml
- fT3 [18]: 5.16 pmol/L
- fT4 [18]: 15.3 pmol/L
- TSH [19]: 0.066 µIU/ml
- fT3 [19]: 4.70 pmol/L
- fT4 [19]: 11.1 pmol/L
- Increased serum TSH, CED-L (males): 0.04 µg/g lipid
- TSH, Dose response (males): D, T
- fT3, Dose response (males): D, T
- fT4, Dose response (males): D, T
- Serum free T3 (S-fT3), CED [20]: 290 mg/kg bw
- Serum free T3 (S-fT3), CED-L [20]: 218 mg/kg bw
- Serum free T4 (S-fT4), CED [20]: 38.1 mg/kg bw
- Serum free T4 (S-fT4), CED-L [20]: 26.8 mg/kg bw
- Serum TSH, CED [21]: 0.07 mg/kg bw and 0.0747 mg/kg bw
- Serum TSH, CED-L [21]: 0.0139 mg/kg bw
- Serum free T3 (S-fT3), CED [22]: 596 mg/kg bw
- Serum free T3 (S-fT3), CED-L [22]: 448 mg/kg bw
- Serum free T4 (S-fT4), CED [22]: 79.4 mg/kg bw
- Serum free T4 (S-fT4), CED-L [22]: 56.0 mg/kg bw
- Serum TSH, CED [23]: 0.149 mg/kg bw
- Serum TSH, CED-L [23]: 0.0278 mg/kg bw
- Serum TSH, CED [24]: 0.29 µg/g lipid
- Serum free T3, CED [24]: 428 µg/g lipid
- Serum free T4, CED [24]: 158 µg/g lipid
- Serum thyroxine, CED-L [24]: 117000 ng/g lipid
- TSH (males, total dose 3 mg/kg bw): 0.021 µIU/ml
- fT3 (males, total dose 3 mg/kg bw): 5.74 pmol/L
- fT4 (males, total dose 3 mg/kg bw): 25.4 pmol/L
- TSH (males, total dose 10 mg/kg bw): 0.057 µIU/ml
- fT3 (males, total dose 10 mg/kg bw): 5.58 pmol/L
- fT4 (males, total dose 10 mg/kg bw): 28.4 pmol/L
- TSH (males, total dose 30 mg/kg bw): 0.059 µIU/ml
- fT3 (males, total dose 30 mg/kg bw): 5.77 pmol/L
- fT4 (males, total dose 30 mg/kg bw): 27.2 pmol/L
- TSH (males, total dose 100 mg/kg bw): 0.089 µIU/ml
- fT3 (males, total dose 100 mg/kg bw): 5.39 pmol/L
- fT4 (males, total dose 100 mg/kg bw): 21.7 pmol/L
- TSH (males, total dose 300 mg/kg bw): 0.075 µIU/ml
- fT3 (males, total dose 300 mg/kg bw): 5.24 pmol/L
- fT4 (males, total dose 300 mg/kg bw): 17.6 pmol/L
- TSH [25]: 0.100 µIU/ml
- fT3 [25]: 4.21 pmol/L
- fT4 [25]: 11.7 pmol/L
- TSH [26]: 0.137 µIU/ml
- fT3 [26]: 4.41 pmol/L
- fT4 [26]: 8.71 pmol/L
